Data reported in patent publication US8119686B2, “Spiroquinone compound and pharmaceutical composition” (Hykes Laboratories LLC, priority 2006, dated 2012).

Legend:
Format in all cases: cell-based, human
[1] = tested on: ABCA1; assay: Increase of ABCA1 in THP-1 cell (membrane fraction, SDS-PAGE and immunoblotting); settings: PMA-differentiated THP-1 macrophages, 24 h culture with compound; relative to cells treated with probucol spiroquinone (=100)
Protocol: THP-1 cells (human leukemia cell; manufactured by American Type Culture Collection) were cultured for 24 hours in 10% FBS-RPMI1640 culture medium (manufactured by Sigma) in the presence of PMA (phorbol myristate acetate; 3.2×10^−7 M; manufactured by Wako Pure Chemical Industries, Ltd.) to obtain differentiated macrophages. The resulting cells were washed with RPMI1640 (manufactured by Sigma) and then added to RPMI1640 culture medium (manufactured by Sigma) with BSA (manufactured by Sigma) having a concentration of 0.2%. The spiroquinone derivatives obtained in Examples 1, 6 and 10 was independently added to the culture medium. Each sample was cultured for 24 hours in the presence or absence of apoAI, and then the ABCA1 expression in the cells was assayed in accordance with the following method. Incidentally, the spiroquinone derivative was dissolved in 2-butabol, and the solution was added to the culture medium so that the final concentration of the spiroquinone derivative was 0.5%.
The cells were washed with PBS (phosphate buffered saline; manufactured by Sigma). The washed cells were collected in 0.5 mM Tris-HCl (pH 8.5) containing a protease inhibitor (manufactured by Sigma), stirred, and allowed to stand on ice for 15 minutes. The resulting cell suspension was centrifuged at 470×g for 5 minutes to precipitate nuclear fractions. Thereafter, the supernatant was centrifuged at 316,000×g for 30 minutes to precipitate membrane fractions. The membrane fractions (15 μg protein) were used to conduct SDS-PAGE and Immunoblotting. The obtained band of the ABCA1 protein was converted into digital data by using an image analysis software (manufactured by […], Photoshop). The relative ratio (%) of the ABCA1 expression level of the cells treated with the spiroquinone derivative to that of the cells treated with probucol spiroquinone was calculated to evaluate the ABCA1 expression activity of the test compounds.

[2] = tested on: THP-1 cells; assay: Acceleration of HDL production reaction (apoA-I-dependent cholesterol release into culture medium); settings: for apoA-1-dependent HDL cholesterol release, increase as compared with probucol spiroquinone: THP-1 cells, fold versus cells treated with probucol spiroquinone; for HDL cholesterol release (relative ratio %): THP-1 macrophages, culture medium after 24 h culture, apoA-I-dependent, relative to cells treated with probucol spiroquinone (=100)
Protocol: The culture medium after 24-hour culture in the presence or absence of apoAI in Test Example 1 was used to examine cholesterol release into the culture medium by the apoA-1-dependent HDL-generating reaction.
Specifically, the culture medium was collected in a 1.5 ml tube and centrifuged at 316,000×g for 5 minutes, and the supernatant was transferred in a glass tube. To the supernatant was added a mixture of chloroform and methanol (volume ratio=2/1) (manufactured by Wako Pure Chemical Industries, Ltd.). The resulting mixture was stirred and further centrifuged at 1,300×g for 5 minutes. After the centrifugation, the resulting water layer was removed. Water was added to the remaining organic layer, and the mixture was stirred again and centrifuged at 1,300×g for 5 minutes. After the centrifugation, the resulting water layer was removed. The organic layer was evaporated to dryness, and cholesterol remaining in the glass tube was quantitatively determined according to an enzymatic method. The relative ratio (%) of the amount of cholesterol release as HDL from the cells treated with the spiroquinone derivative to that from the cells treated with probucol spiroquinone was calculated to evaluate the HDL cholesterol release from the cells treated with the test compounds.

[3] = tested on: ABCA1 mRNA; assay: mRNA expression of intracellular ABCA1 (Real Time PCR); settings: for mRNA Expression level of ABCA1 (relative ratio %): THP-1 macrophages, standardized to GAPDH mRNA, relative to untreated cells (=100)
Protocol: The cells washed with PBS in Test Example 1 were used. From the cells, RNA was extracted with ISOGEN (manufactured by Wako Pure Chemical Industries, Ltd.). By using a Super Script First-Strand Synthesis System for RT-PCR (manufactured by Invitrogen) cDNA was prepared, and the mRNA expression of ABCA1 was assayed by Real Time PCR using ABCA1 specific primer and Power SYBR Green PCR Master Mix (manufactured by Applied Biosystems).
Moreover, the mRNA expression of GAPDH as an internal control was also assayed simultaneously. The mRNA expression level of ABCA1 was standardized as a ratio (%) relative to the mRNA expression level of GAPDH. The mRNA expression level of ABCA1 in the cells treated with the test compound relative to that in untreated cells was calculated and evaluated.

| Structure (SMILES) | ABCA1 expression level (relative ratio %) [1] [%] | apoA-1-dependent HDL cholesterol release, increase as compared with probucol spiroquinone [2] | HDL cholesterol release (relative ratio %) [2] [%] | mRNA expression of ABCA1 in treated THP-1 cells (in words) ([3]; THP-1 cells) | mRNA Expression level of ABCA1 (relative ratio %) [3] [%] |
| --- | --- | --- | --- | --- | --- |
| CC1(CCC(=O)O)SC2(C=C(C(C)(C)C)C(=O)C(C(C)(C)C)=C2)C2(C=C(C(C)(C)C)C(=O)C(C(C)(C)C)=C2)S1 [Example 1, 14-carboxyethyl-14-methyl-2,4,9,11-tetrakis(t-butyl)-13,15-dithiadispiro[5.0.5.3]pentadeca-1,4,8,11-tetraene-3,10-dione] | 238 | – | – | – | – |
| CCCC1(C)SC2(C=C(C(C)(C)C)C(=O)C(C(C)(C)C)=C2)C2(C=C(C(C)(C)C)C(=O)C(C(C)(C)C)=C2)S1 [Example 6, 14-methyl-2,4,9,11-tetrakis(t-butyl)-14-n-propyl-13,15-dithiadispiro[5.0.5.3]pentadeca-1,4,8,11-tetraene-3,10-dione] | 176 | about 1.3 times | 134 | not found | 51 |
| CC1(C)SC2(C=C(C(C)(C)C)C(=O)C(C(C)(C)C)=C2)C2(C=C(C(C)(C)C)C(=O)C(C(C)(C)C)=C2)S1 [Probucol spiroquinone, reference compound] | 100 | – | 100 | – | 65 |
| CC(C)(C)C1=CC2(C=C(C(C)(C)C)C1=O)SC1(CCCC1)SC21C=C(C(C)(C)C)C(=O)C(C(C)(C)C)=C1 [Example 10, 9,11,15,17-tetrakis(t-butyl)-6,19-dithiadispiro[4.1.5^7.0.5^13.1^5]nonadeca-8,11,14,17-tetraene-10,16-dione] | 309 | about 1.3 times | 128 | – | – |
